Tested on: Meth A sarcoma
Assay: Antitumor effect of adriamycin-including peptide-modified liposomes, tail vein administration
Assay type: in vivo, BALB/c mice
Conditions: FIG. 15; after three tail vein administrations on days 6, 9 and 12
Procedure: Solid tumor-bearing mice were prepared by subcutaneously administering Meth A sarcoma cells (1×10^6 cells/mouse) into the left flank of five-week-old BALB/c male mice (Japan SLC). The day of implantation was taken as day 1 and, on days 6, 9 and 12, the 0.3 M glucose solution (solvent) as a control, adriamycin (ADR)-including control liposomes (liposomes including the anticancer agent but free of any angiogenesis-specific peptide of the invention), a free ADR solution prepared by dissolving the anticancer agent ADR in a concentration of 15 mg/kg (mouse) in 0.3 M glucose, and the ADR-including, angiogenesis-specific peptide-modified liposomes of the invention as prepared above in (1) were respectively administered into the tail vein. In the test, 5 tumor-bearing mice were used in each group.
The antitumor effect of each agent administered was evaluated by examining, from 5 days after tumor implantation, the tumor volume as an indicator of tumor growth and the mouse body weight change as well as the survival period (days) as an indicator of side effect, in a similar manner as in Example 4 (2).
In the figure, the ordinate denotes the tumor volume and the ascissa denotes the number of days after tumor implantation. […]

Question: For `COc1cccc2c1C(=O)c1c(O)c3c(c(O)c1C2=O)C[C@@](O)(C(=O)CO)C[C@@H]3O[C@H]1C[C@H](N)[C@H](O)[C@H](C)O1` [free ADR solution, adriamycin], which death of mice is on record?
Answer: all mice died

— patent US6753310B1, “Neovascular-specific peptides” (Otsuka Pharmaceutical Co., Ltd., priority 1998, dated 2004)
